Data: patent US10849926B2, “GM3-promoted inflammation inhibitor and inflammatory cytokine production inhibitor” (THE NOGUCHI INSTITUTE, priority 2015, dated 2020)

Experiments:
[1] = test system: RAW 264.7 cells; assay: LPS-dependent TNF-α production in RAW 264.7 cells (ELISA); format: cell-based, mouse; settings: for TNF-α production by LPS on addition of 1 μM or less of ganglioside: LPS 2.0 ng/mL (FIG. 4); for TNF-α production by LPS: LPS 0.5 ng/mL + each glycosphingolipid 1.0 μM, 0.5% fetal bovine serum, 18 hours (FIG. 3); for inflammation promoted by LPS (LPS-dependent TNF-α production): LPS 2.0 ng/mL + glycosphingolipid 0.25 to 2.0 μM, 18 hours (FIG. 4)
Description: A serum ganglioside mimic resembling the composition of these gangliosides was used to treat a macrophage-like cultured cell line in which the serum in the medium was removed and reduced: RAW 264.7 cells (0.5% fetal bovine-derived serum). Then, an actual influence on TNF-α production by TLR4 ligand (LPS) stimulation was examined.
RAW 264.7 cells cultured overnight in DMEM containing 0.5% fetal bovine serum were co-stimulated by 0.5 ng/mL of lipopolysaccharide (LPS) and ganglioside (serum ganglioside mimic) at a concentration resembling the composition of serum ganglioside. 18 hours later, the TNF-α in the culture supernatant was quantitated by an ELISA method.
RAW 264.7 cells cultured overnight in DMEM containing 0.5% fetal bovine serum were co-stimulated by LPS (0.5 ng/mL) and each glycosphingolipid (1.0 μM). 18 hours later, the TNF-α in the culture supernatant was quantitated by the ELISA method.
RAW 264.7 cells cultured overnight in DMEM containing 0.5% fetal bovine serum were co-stimulated by LPS (2.0 ng/mL) and each glycosphingolipid (0.25 to 2.0 μM). 18 hours later, the TNF-α in the culture supernatant was quantitated by the ELISA method.

[2] = test system: RAW 264.7 cells; assay: Cooperative TNF-α production by LPS and GM3 in RAW 264.7 cells (ELISA); format: cell-based, mouse; settings: LPS 0.5 ng/mL; for TNF-α production by LPS and GM3 on addition of 1 μM or less of ganglioside: 1 μM (GM3 ratio; 10:1) or less, GM3 5.0 μM (FIG. 5); for synergistic increases in productions of TNF-α by GM3 and LPS: glycosphingolipid 0.25 to 1.0 μM
Description: RAW 264.7 cells cultured overnight in DMEM containing 0.5% fetal bovine serum were co-stimulated by each glycosphingolipid (0.25 to 1.0 μM), LPS (0.5 ng/mL), and GM3 (5.0 μM). 18 hours later, the TNF-α in the culture supernatant was quantitated by the ELISA method.

[3] = test system: bone marrow-derived macrophages (BMDMs); assay: LPS-dependent TNF-α production in bone marrow-derived macrophages (ELISA); format: cell-based, mouse; settings: LPS 0.5 ng/mL + glycosphingolipid 10 μM, 18 hours (FIG. 6)
Description: (§1) Bone marrow-derived cells harvested from the femur and tibia of C57/BL6 mice were induced to differentiate for one week using 20 ng/mL of recombinant macrophage colony-stimulating factor (M-CSF). The obtained bone marrow-derived macrophages (BMDMs) were cultured overnight in DMEM containing 0.5% fetal bovine serum and co-stimulated with LPS (0.5 ng/mL) and each glycosphingolipid (10 μM). 18 hours later, the TNF-α in the culture supernatant was quantitated by the ELISA method.

[4] = test system: bone marrow-derived macrophages (BMDMs); assay: Cooperative TNF-α production by LPS and GM3 in bone marrow-derived macrophages (ELISA); format: cell-based, mouse; settings: LPS 0.5 ng/mL, GM3 10 μM, glycosphingolipid 10 μM, 18 hours (FIG. 7)
Description: as §1, with “ng/mL), GM3 (10 μM),” for “ng/mL)”, “μM). After” for “μM).”, “hours,” for “hours later,”, “quantified” for “quantitated”

[5] = test system: Human peripheral blood-derived monocytes (CD14 positive cells); assay: LPS-dependent inflammatory cytokine production in human peripheral blood-derived monocytes (ELISA); format: cell-based; settings: LPS 0.125 ng/mL + 1.25, 2.5, or 5.0 μM ganglioside; for production of IL-6 by LPS: 18 hours (FIG. 8); for production of IL-1β by LPS: 18 hours (FIG. 9); for production of TNF-α by LPS: 18 hours (FIG. 10)
Description: (§2) Human peripheral blood-derived monocytes (CD14 positive cells) were cultured in DMEM (Low Glucose) containing 0.5% FCS and 25 ng/mL of granulocyte/macrophage colony stimulating factor, and co-stimulated with 0.125 ng/mL of E. coli-derived lipopolysaccharide (LPS, E. coli O111:B4), and 1.25, 2.5, or 5.0 μM of N-mix (neutral glycosphingolipid mixture (Glc-Cer, Lac-Cer, Gb3, and Gb4)) or each of the ganglioside molecular species. 18 hours later, the inflammatory cytokines (IL-6, IL-1β, and TNF-α) secreted in the culture supernatant were quantitated using the ELISA method.

[6] = test system: TLR4; assay: IL-6 production in human monocytes stimulated with LPS (TLR4 activating factor); format: cell-based; settings: LPS 0.125 ng/mL, 5 μM GM3 molecular species, 18 hours (FIG. 12)
Description: as §2
(§3) Then, under the same culture conditions as in Example 5, human monocytes were stimulated using any of 0.125 ng/mL of LPS (i.e., TLR4 activating factor), 5.0 μg/mL of high mobility group box 1 (HMGB 1) (i.e., a TLR4 and TLR2 activating factors), 20 ng/mL of Pam3Csk4 (i.e., a TLR1 and TLR2 activating factors), 1.0 ng/mL of MALP-2 (i.e., TLR2 and TLR6 activating factors), 50 ng/mL of Flagellin (i.e., a TLR5 activating factor), and 250 ng/mL of R-848 (i.e., TLR7 and TLR8 activating factors); and 5 μM of GM3 molecular species. 18 hours later, the inflammatory cytokine IL-6 secreted in the culture supernatant was quantitated using the ELISA method.

[7] = test system: TLR4 and TLR2; assay: IL-6 production in human monocytes stimulated with HMGB1 (TLR4 and TLR2 activating factor); format: cell-based; settings: HMGB 1 5.0 μg/mL, 5 μM GM3 molecular species, 18 hours (FIG. 12)
Description: as §2, §3

[8] = test system: Toll-like receptor (TLR) on human monocytes; assay: IL-6 production in human monocytes stimulated with other TLR activating factors (Pam3Csk4, MALP-2, Flagellin, R-848); format: cell-based; settings: 5 μM GM3 molecular species, 18 hours (FIG. 12)
Description: as §2, §3

[9] = test system: human monocytes; assay: IL-6 production in human monocytes by LPS with or without GM3C22 or GM3C24 (ELISA); format: cell-based; settings: for production of IL-6 in response to stimulation promoted by the addition of GM3C22 and GM3C24: LPS 0.06 ng/mL + GM3C22 or GM3C24, 18 hours (FIG. 11); for production of IL-6 in response to LPS stimulation: LPS 0.06 ng/mL only, 18 hours (FIG. 11)
Description: as §2
Under the same culture conditions as in Example 5, “GM3C16”, “GM3C18” or “GM3C24:1” which inhibited inflammation was combined to “GM3C22” or “GM3C24” which promoted inflammation. The resultant combination was added to the monocytes and further stimulated with 0.06 ng/mL of LPS (i.e., a TLR4 activating factor). 18 hours later, the inflammatory cytokine IL-6 secreted in the culture supernatant was quantitated using the ELISA method.

[10] = test system: TLR1 and TLR2; assay: IL-6 production in human monocytes stimulated with Pam3Csk4 (TLR1 and TLR2 activating factor); format: cell-based; settings: Pam3Csk4 20 ng/mL, 5 μM GM3 molecular species, 18 hours (FIG. 12)
Description: as §2, §3

Compound | TNF-α production by LPS on addition of 1 μM or less of ganglioside [1] | TNF-α production by LPS [1] | inflammation promoted by LPS (LPS-dependent TNF-α production) [1] | TNF-α production by LPS and GM3 on addition of 1 μM or less of ganglioside [2] | IC50 ([2]; TNF-α production, GM3 5.0 μM, 18 hours (FIG. 5), read-out: 50% inhibitory concentration for cooperative activation of LPS and GM3) [µM] | synergistic increases in productions of TNF-α by GM3 and LPS ([2]; GM3 5.0 μM, 18 hours (FIG. 5)) | LPS-dependent TNF-α production in bone marrow-derived macrophages [3] | cooperative TNF-α production by LPS and GM3 in bone marrow-derived macrophages [4] | production of IL-6 by LPS [5] | production of IL-1β by LPS [5] | production of TNF-α by LPS [5] | IL-6 production by LPS [6] | IL-6 production by HMGB1 [7] | IL-6 production in other TLR activating factors [8] | production of IL-6 in response to stimulation promoted by the addition of GM3C22 and GM3C24 [9] | production of IL-6 in response to LPS stimulation [9] | IL-6 production by Pam3Csk4 [10]
GT1b | almost completely inhibited | significantly strongly inhibited | inhibited in a concentration-dependent manner | almost completely inhibited | 0.25 | inhibited in a concentration-dependent manner | inhibited | strongly inhibited |  |  |  |  |  |  |  |  | 
CCCCCCCCCCCCCC=CC(O)C(COC1OC(CO)C(OC2OC(CO)C(O)C(OC3(C(=O)O)CC(O)C(NC(C)=O)C(C(O)C(O)CO)O3)C2O)C(O)C1O)NC(=O)C(O)CCCCCCCCCCCCCCCCCCCCCC (centres unmarked) [GM3hC24, reference compound] |  |  |  |  |  |  |  |  | significantly enhanced | significantly enhanced | significantly enhanced | selectively increased | selectively increased | no increase |  |  | 
GD1b | almost completely inhibited | significantly strongly inhibited | inhibited in a concentration-dependent manner | almost completely inhibited |  | inhibited in a concentration-dependent manner | inhibited | strongly inhibited |  |  |  |  |  |  |  |  | 
α-Neu5Ac-(2-3)β-Gal-(1-4)-β-Glc-(1-1)-ceramide [GM3, reference compound] |  | significantly increased |  |  |  |  |  |  |  |  |  |  |  |  |  |  | 
CCCCCCCCCCCCCC=CC(O)C(COC1OC(CO)C(OC2OC(CO)C(O)C(OC3(C(=O)O)CC(O)C(NC(C)=O)C(C(O)C(O)CO)O3)C2O)C(O)C1O)NC(=O)CCCCCCCCCCCCCCCCC (centres unmarked) [GM3C18] |  |  |  |  |  |  |  |  | inhibiting | inhibiting | inhibiting | inhibitory action | inhibitory action |  | strongly inhibited | strongly inhibited | inhibitory action was also observed
CCCCCCCCCCCCCC=CC(O)C(COC1OC(CO)C(OC2OC(CO)C(O)C(OC3(C(=O)O)CC(O)C(NC(C)=O)C(C(O)C(O)CO)O3)C2O)C(O)C1O)NC(=O)CCCCCCCCCCCCCCCCCCCCCCC (centres unmarked) [GM3C24, reference compound] |  |  |  |  |  |  |  |  | significantly enhanced | significantly enhanced | significantly enhanced | selectively increased | selectively increased | no increase |  |  | 
GD1a | almost completely inhibited | strongly inhibited | inhibited in a concentration-dependent manner | almost completely inhibited |  | inhibited in a concentration-dependent manner | inhibited | strongly inhibited |  |  |  |  |  |  |  |  | 
CCCCCCCCC=CCCCCCCCCCCCCCC(=O)NC(COC1OC(CO)C(OC2OC(CO)C(O)C(OC3(C(=O)O)CC(O)C(NC(C)=O)C(C(O)C(O)CO)O3)C2O)C(O)C1O)C(O)C=CCCCCCCCCCCCCC (centres unmarked) [GM3C24:1] |  |  |  |  |  |  |  |  | inhibiting | inhibiting | inhibiting | inhibitory action | inhibitory action |  | strongly inhibited | strongly inhibited | inhibitory action was also observed
CCCCCCCCCCCCCC=CC(O)C(COC1OC(CO)C(OC2OC(CO)C(O)C(OC3(C(=O)O)CC(O)C(NC(C)=O)C(C(O)C(O)CO)O3)C2O)C(O)C1O)NC(=O)CCCCCCCCCCCCCCC (centres unmarked) [GM3C16] |  |  |  |  |  |  |  |  | inhibiting | inhibiting | inhibiting | inhibitory action | inhibitory action |  | strongly inhibited | strongly inhibited | inhibitory action was also observed
CCCCCCCCCCCCCC=CC(O)C(COC1OC(CO)C(OC2OC(CO)C(O)C(OC3(C(=O)O)CC(O)C(NC(C)=O)C(C(O)C(O)CO)O3)C2O)C(O)C1O)NC(=O)CCCCCCCCCCCCCCCCCCCCC (centres unmarked) [GM3C22, reference compound] |  |  |  |  |  |  |  |  | significantly enhanced | significantly enhanced | significantly enhanced | selectively increased | selectively increased | no increase |  |  | 
